Test results published in patent US20100316579A1, “NOVEL USE OF ALKYL PHOSPHATE ESTERS” (Glaxo Group Limited, priority 2006, published 2010).

How the values were obtained:
[1] = Enamel solubility reduction (FDA ESR model #33 modified), citric acid challenge; settings: for Enamel Solubility Reduction (%): 1.0% w/w citric acid monohydrate pH 3.75, alkyl phosphates 0.50% w/w aqueous, pH 7, normalised to water negative control
Excerpt: (§1) FDA caries monograph enamel solubility reduction (ESR) model #33 is designed to evaluate in vitro the utility of fluoride toothpastes to protect enamel against a bacterial (lactic) acid challenge. In brief, enamel specimens are placed in a lactic acid challenge (pH 4.5) and the solubility determined by spectrophotometric analysis of released phosphate. Specimens are then placed in the relevant treatment solution derived from the supernatant of a 1:3 slurry of the toothpaste in deionised water. After 5 minutes the specimens are removed, rinsed, and placed in a fresh lactic acid challenge. The enamel solubility is determined once again, and the ESR value calculated as a percentage reduction relative to the baseline solubility.
The methodology described above was modified in order to evaluate the ability of putative anti-erosion actives to confer protection against a more aggressive dietary acid challenge. […] The alkyl phosphates were tested as 0.50% w/w aqueous solutions at pH 7. Fluoride was included as a positive control, and Crest Cavity Protection was also run as an additional control standard.

[2] = Inhibition of citric acid-mediated enamel surface softening (Vickers microhardness/microindentation); parameters: species or system human; settings: Example 1; for enamel surface microhardness (baseline = 100): ± = standard deviation; for levels of protection compared among SDP, PDEP and fluoride positive control: at 10 and 20 minutes; for levels of protection compared among SDP, PDEP and fluoride positive control / protection versus the fluoride positive control: in words; for protection versus the fluoride positive control: at 30 minutes
Description: The first stage of dental erosion and acid wear involves demineralisation of the hard tissue surface and consequent surface softening. The present study employed a Duramin Microhardness Tester to assess the protective effect of SDP and PDEP against an erosive challenge based on citric acid.
Sound human enamel specimens were polished with 2400 grit abrasive and subsequently immersed in an aqueous solution of the specified treatment at pH 7 for 2 minutes under ambient conditions, with agitation. After rinsing with deionised water, the enamel specimens were exposed to an erosive challenge comprising an aqueous solution of 0.30% w/w citric acid monohydrate, pH 3.6. The extent of acid damage was assessed by monitoring the decrease in enamel surface hardness as a function of acid exposure time. The microhardness value for each specimen at a given time point was based on the mean of 6 indents. Each treatment leg employed 3 enamel specimens, which were randomised according to baseline microhardness. A 300 ppm fluoride ion solution (from NaF) was employed as the positive control; deionised water was employed as the negative control. The protective effects of combination treatment solutions i.e. 0.50% alkyl phosphate plus 300 ppm fluoride, were also investigated.
The actives were tested as aqueous solutions at 0.50% w/w and pH 7.

[3] = Enamel solubility reduction (FDA ESR model #33 modified), phosphoric acid challenge
Excerpt: as §1
FDA ESR Model #33 was modified by replacing lactic acid with phosphoric acid, a dietary acid most commonly associated with cola drinks. Determination of enamel solubility in this study was based on analysis of the released calcium to prevent interference from the acid challenge.

[4] = 10 mins acid (0.30% w/w citric acid monohydrate, pH 3.6) after 2 min treatment at pH 7
[5] = 20 mins acid (0.30% w/w citric acid monohydrate, pH 3.6) after 2 min treatment at pH 7
[6] = 30 mins acid (0.30% w/w citric acid monohydrate, pH 3.6) after 2 min treatment at pH 7

| Compound | Enamel Solubility Reduction (%) [1] | directional comparison with fluoride ([1]; citric acid ESR, in words) | statistical comparison with the 300 ppm fluoride control ([1]; citric acid ESR, in words) | enamel surface microhardness (baseline = 100) [2, 4] | enamel surface microhardness (baseline = 100) [2, 5] | enamel surface microhardness (baseline = 100) [2, 6] | levels of protection compared among SDP, PDEP and fluoride positive control [2] | protection versus the fluoride positive control [2] | protection against the phosphoric acid challenge compared to the negative water control ([3]; in words) | acid protection versus the 300 ppm fluoride ([3]; phosphoric acid ESR, in words) | Enamel Solubility Reduction (%) ([3]; phosphoric acid challenge, solubility from released calcium) |
| --- | --- | --- | --- | --- | --- | --- | --- | --- | --- | --- | --- |
| CCCCCCCCCCCCOP(=O)([O-])[O-].[Na+].[Na+] [SDP, sodium dodecyl phosphate] | 36.76% | directionally superior | not statistically different | 94 ± 1.7 | 84 ± 4.0 | 80 ± 2.0 | comparable | statistically superior | statistically significant protection | statistically superior | 16.02% |
| potassium dodecyl ether (1EO) phosphate [PDEP] | 17.77% |  | statistically inferior | 92.5 ± 1.8 | 82.5 ± 2.7 | 78 ± 2.8 | comparable | statistically superior |  |  |  |
